Experimental data taken from patent US9056832B2, “Pyridine compounds and the users thereof” (Purdue Pharma L.P., priority 2010, dated 2015).
Where two headings read alike, the source gives them in different places.

Target: human Nav1.7 (Homo sapiens (Human), UniProt Q15858)
Assay: FLIPR or FLIPR TETRA sodium dye assay with KCl and test article pre-incubation
Assay type: cell-based
Settings: read-out: Nav1.7 IC50 (μM) ± SEM
[1] = recombinant human Nav1.7 in HEK293 cells, CoroNa Green sodium dye, veratridine + scorpion venom

Chain of human Nav1.7 (Q15858 other isoform, or with tags, fused parts or gaps): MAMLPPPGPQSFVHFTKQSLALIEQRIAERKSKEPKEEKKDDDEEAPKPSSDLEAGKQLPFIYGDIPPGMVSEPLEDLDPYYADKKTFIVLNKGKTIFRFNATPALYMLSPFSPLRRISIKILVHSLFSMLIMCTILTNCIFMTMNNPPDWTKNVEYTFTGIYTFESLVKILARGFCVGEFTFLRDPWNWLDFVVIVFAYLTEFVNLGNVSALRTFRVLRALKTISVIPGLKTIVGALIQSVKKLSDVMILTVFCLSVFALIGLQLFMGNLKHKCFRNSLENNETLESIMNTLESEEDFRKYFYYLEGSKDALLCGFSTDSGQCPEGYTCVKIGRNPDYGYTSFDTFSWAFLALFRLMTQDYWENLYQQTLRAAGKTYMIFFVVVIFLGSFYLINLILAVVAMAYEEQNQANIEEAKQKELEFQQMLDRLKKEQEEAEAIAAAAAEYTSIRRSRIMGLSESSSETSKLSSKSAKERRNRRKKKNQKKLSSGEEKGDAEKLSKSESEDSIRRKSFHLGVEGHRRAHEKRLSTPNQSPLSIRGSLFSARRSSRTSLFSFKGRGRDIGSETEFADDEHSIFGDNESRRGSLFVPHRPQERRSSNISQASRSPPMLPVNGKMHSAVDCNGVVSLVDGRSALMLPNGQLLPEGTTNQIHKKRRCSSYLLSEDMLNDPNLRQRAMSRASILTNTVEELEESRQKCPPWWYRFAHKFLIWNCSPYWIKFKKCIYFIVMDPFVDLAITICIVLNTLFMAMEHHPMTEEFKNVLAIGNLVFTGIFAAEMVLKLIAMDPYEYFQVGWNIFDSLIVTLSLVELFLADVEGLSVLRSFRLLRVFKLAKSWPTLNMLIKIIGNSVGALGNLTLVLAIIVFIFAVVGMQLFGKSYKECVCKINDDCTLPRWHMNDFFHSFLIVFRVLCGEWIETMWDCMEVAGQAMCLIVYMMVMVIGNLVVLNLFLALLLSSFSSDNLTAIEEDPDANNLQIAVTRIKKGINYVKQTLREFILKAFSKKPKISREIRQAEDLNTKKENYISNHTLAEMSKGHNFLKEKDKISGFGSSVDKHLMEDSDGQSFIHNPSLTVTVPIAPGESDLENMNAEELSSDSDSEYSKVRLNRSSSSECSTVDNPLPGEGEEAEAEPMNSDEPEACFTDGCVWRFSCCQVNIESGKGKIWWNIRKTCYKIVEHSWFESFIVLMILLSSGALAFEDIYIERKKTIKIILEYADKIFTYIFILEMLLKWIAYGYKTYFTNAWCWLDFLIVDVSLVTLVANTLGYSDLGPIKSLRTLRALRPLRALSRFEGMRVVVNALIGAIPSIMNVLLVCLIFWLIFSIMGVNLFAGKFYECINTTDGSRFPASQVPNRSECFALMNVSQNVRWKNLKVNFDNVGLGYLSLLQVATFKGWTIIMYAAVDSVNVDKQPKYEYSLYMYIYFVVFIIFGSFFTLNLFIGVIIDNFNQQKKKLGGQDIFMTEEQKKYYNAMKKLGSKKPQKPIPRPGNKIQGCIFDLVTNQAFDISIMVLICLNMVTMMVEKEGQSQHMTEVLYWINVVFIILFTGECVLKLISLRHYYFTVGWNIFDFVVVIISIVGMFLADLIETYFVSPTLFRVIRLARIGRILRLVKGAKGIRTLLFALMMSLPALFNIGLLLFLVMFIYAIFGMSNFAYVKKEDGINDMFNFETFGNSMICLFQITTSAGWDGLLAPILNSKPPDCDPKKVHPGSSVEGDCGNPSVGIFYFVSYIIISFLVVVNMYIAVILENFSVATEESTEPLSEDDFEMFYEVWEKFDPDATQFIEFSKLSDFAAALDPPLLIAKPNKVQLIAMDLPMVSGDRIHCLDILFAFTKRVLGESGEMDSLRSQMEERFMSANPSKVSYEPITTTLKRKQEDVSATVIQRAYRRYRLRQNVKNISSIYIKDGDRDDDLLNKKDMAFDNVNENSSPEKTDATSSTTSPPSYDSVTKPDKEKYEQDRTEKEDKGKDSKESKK

SMILES | IC50 [1] | IC50
O=S(=O)(Nc1ccc(-c2cccc([C@H](O)CO)n2)cc1)c1ccc(F)cc1 [compound 137, (S)-N-(4-(6-(1,2-dihydroxyethyl)pyridin-2-yl)phenyl)-4-fluorobenzene sulfonamide] | > 20 µM | –
NC(=O)CN1CCC(CNc2cc(C(N)=O)nc(-c3ccc(Oc4ccc(F)cc4)cc3)c2)CC1 [compound 52, 4-(((1-(2-amino-2-oxoethyl)piperidin-4-yl)methyl)amino)-6-(4-(4-fluorophenoxy)phenyl) picolinamide] | 0.2 ± 0.08 µM | –
N#Cc1ccc(Oc2ccc(-c3cc([C@H](O)CO)cc(C(N)=O)n3)cc2)cc1C(F)(F)F [compound 31, (S)-6-(4-(4-cyano-3-(trifluoromethyl)phenoxy)phenyl)-4-(1,2-dihydroxyethyl) picolinamide] | – | 0.61 ± 0.1 µM
CN(c1ccccc1)c1cc(-c2ccc(Oc3ccc(F)cc3)cc2)cc(C(=O)O)n1 [compound 119, 4-(4-(4-fluorophenoxy)phenyl)-6-(methyl (phenyl)amino) picolinic acid] | 2.46 ± 0.8 µM | –
NC(=O)c1cc(-c2ccc(Oc3ccc(F)cc3)cc2)cc([C@@H](O)CO)n1 [compound 96, (R)-6-(1,2-dihydroxyethyl)-4-(4-(4-fluorophenoxy)phenyl)picolinamide] | 0.12 ± 0.03 µM | –
O=C(O)c1cc(N(CCc2nn[nH]n2)c2ccccc2)cc(-c2ccc(Oc3ccc(F)cc3)cc2)n1 [compound 152, 6-[4-(4-Fluoro-phenoxy)-phenyl]-4-{phenyl-[2-(2H-tetrazol-5-yl)ethyl]-amino}-pyridine-2-carboxylic acid] | 1.87 ± 0.68 µM | –
N#Cc1cc(C(F)(F)F)ccc1Oc1ccc(-c2cccc(C(O)CO)n2)cc1 (stereo not shown) [compound 10, 2-(4-(6-(1,2-dihydroxyethyl)pyridin-2-yl)phenoxy)-5-(trifluoromethyl) benzonitrile] | 0.52 ± 0.11 µM | –
NC(=O)c1cc(NC(=O)NCC(=O)O)cc(-c2ccc(Oc3ccc(F)cc3)cc2)n1 [compound 87, 2-(3-(2-carbamoyl-6-(4-(4-fluorophenoxy)phenyl)pyridin-4-yl)ureido)acetic acid] | > 20 µM | –
O=C1NCCN1CCNCc1cccc(-c2ccc(Oc3ccc(F)cc3)cc2)n1 [compound 62, 1-(2-(((6-(4-(4-fluorophenoxy)phenyl)pyridin-2-yl)methyl)amino)ethyl)imidazolidin-2-one] | 0.07 ± 0.02 µM | –
NC(=O)CN1CCN(c2cc(Cl)nc(-c3ccc(Oc4ccc(F)cc4)cc3)c2)CC1 [compound 109, 2-(4-(2-chloro-6-(4-(4-fluorophenoxy)phenyl)pyridine-4-yl)piperazin-1-yl) acetamide] | 3.77 ± 0.56 µM | –
CS(=O)(=O)NCc1cc(C(N)=O)nc(-c2ccc(Oc3ccc(F)cc3)cc2)c1 [compound 50, 6-(4-(4-fluorophenoxy)phenyl)-4-(methylsulfonamido-methyl)picolinamide] | 0.14 ± 0.03 µM | –
NC(=O)c1cc([C@@H](O)CO)cc(-c2ccc(Oc3ccc(C(F)(F)F)cn3)cc2)n1 [compound 132, (R)-4-(1,2-dihydroxyethyl)-6-(4-((5-(trifluoromethyl)pyridin-2-yl)oxy)phenyl)picolinamide] | 2.78 ± 0.75 µM | –
OC[C@@H](O)c1cccc(-c2ccc(Oc3ccc(C(F)(F)F)cn3)cc2)n1 [compound 24, (S)-1-(6-(4-((5-(trifluoromethyl)pyridin-2-yl)oxy)phenyl)pyridin-2-yl)ethane-1,2-diol] | 6.49 ± 2.94 µM | –
NC(=O)c1cc(NCc2cccnc2)cc(-c2ccc(Oc3ccc(F)cc3)cc2)n1 [compound 45, 6-(4-(4-fluorophenoxy)phenyl)-4-((pyridin-3-ylmethyl)amino) picolinamide] | 0.15 ± 0.01 µM | –
O=C(NCCN1CCCCC1)c1cc(-c2nnn[nH]2)cc(-c2ccc(Oc3ccc(F)cc3)cc2)n1 [compound 86, 6-(4-(4-fluorophenoxy)phenyl)-N-(2-(piperidin-1-yl)ethyl)-4-(1H-tetrazol-5-yl) picolinamide] | 9.21 ± 1.15 µM | –
NC(=O)c1cc(-c2ccc(Oc3ccc(F)cc3)cc2)cc(NC(CO)CO)n1 [compound 128, 6-((1,3-dihydroxypropan-2-yl)amino)-4-(4-(4-fluorophenoxy)phenyl) picolinamide] | 1.29 ± 0.17 µM | –
